Structures are written as SMILES. ≈ marks a conversion by molar mass, not a printed value.

In the assay the test system is unknown pathogen. As to the kind of experiment: Antimicrobial susceptibility (MIC/MBC) from Raman slope and time to cloudiness versus antimicrobial concentration. Format: cell-based. As to the method:
To measure the minimum inhibitory concentration, or to otherwise characterize the antimicrobial susceptibility of any unknown pathogen to a candidate antimicrobial: • (a) Incubate the unknown pathogen for about 3 hours in a rich media. This time period should suffice to increase the concentration of the causative pathogen by about >100×. […] Incubate this mixture for another 20 minutes, which allows for sufficient time for the 10 CFUs to interact with the candidate antimicrobial. • (d) Add the 7 mixtures to the test vials, and test. The number of free radicals present in the mixed sample is a function of the concentration of the antimicrobial, and so the final slope can be plotted against antimicrobial concentration to develop estimates for the MIC. This is illustrated in FIGS. 32A and 32B.
FIG. 32A depicts the measured slope as a function of antimicrobial agent (vancomycin) concentration. FIG. 32B depicts the time taken for the tested samples to become cloudy. Above 2 μg/m L, the samples remain clear for very long incubation periods (>96 hours). Thus, the Minimum Bactericidal Concentration MBC is about 2 μg/mL. Above 0.25 mg/mL, the time to cloudiness increases slightly. […] As illustrated in FIGS. 32A and 32B, the MIC corresponds to the concentration at which the signal decreases slightly. Further, the MBC (Minimum Bactericidal Concentration) corresponds to the concentration at which the signal increases again.

Turning to `CN[C@H](CC(C)C)C(=O)N[C@H]1C(=O)N[C@@H](CC(N)=O)C(=O)N[C@H]2C(=O)N[C@H]3C(=O)N[C@H](C(=O)N[C@H](C(=O)O)c4cc(O)cc(O)c4-c4cc3ccc4O)[C@H](O)c3ccc(c(Cl)c3)Oc3cc2cc(c3O[C@@H]2O[C@H](CO)[C@@H](O)[C@H](O)[C@H]2O[C@H]2C[C@](C)(N)[C@H](O)[C@H](C)O2)Oc2ccc(cc2Cl)[C@H]1O` [vancomycin], the “time taken for the tested samples to become cloudy (samples remain clear)” value (above 2 μg/mL vancomycin) was greater than 96 h. For the same molecule, the MBC (concentration above which samples remain clear, signal increases again, read-out: Minimum Bactericidal Concentration MBC) is roughly 2 µg/mL (≈ 1.38 µM). In addition, the MIC (read-out: MIC (minimum inhibitory concentration)) is roughly 250 µg/mL (≈ 173 µM).

The record behind these values is patent US11105747B2, “Spectroscopic methods to detect and characterize microorganisms” (Spectral Platforms, Inc., priority 2017, dated 2021).
